Assay results: patent US8518419B2, “Method of treating diabetes” (Garvan Institute of Medical Research, priority 2006, dated 2013)
“Also recorded” adds a separate entry of the source.

Columns and labels:
Min6 cells [1] = assay: Measurement of intracellular ATP concentrations; type: cell-based, mouse; conditions: DFO treatment
Procedure: ATP concentrations were measured in islets and in Min6 cells following exposure to low (1 mM) or high glucose (25 mM) for 30 minutes. At the 30 minute timepoint, cells were placed on ice, washed twice in ice-cold PBS and lysed and ATP was measured using a kit purchased from Roche, according to the manufacturer's instructions.

human islets = assay: Insulin release of human islets at low and high glucose; type: cell-based; conditions: DFO 4 hours, low (5 mM) and high (11 mM) glucose
Procedure: The present inventors were interested to determine whether DFO was beneficial for function of human islets. Islets were isolated from people with normal glucose tolerance and treated with control media or media supplemented with DFO for 4 hours, and insulin release subsequently measured at low (5 mM) and high (11 mM) glucose concentrations.

Min6 cells [2] = assay: Glucose-stimulated insulin secretion (GSIS) in Min6 cells; type: cell-based, mouse; conditions: DFO treatment
diabetic recipient mouse = assay: Mouse islet transplantation into streptozotocin-diabetic mice; type: in vivo; conditions: mouse islets cultured with 125 μM DFO 2 hours before transplantation, 1 donor:1 recipient, followed 28 days
Procedure: Islets were isolated from control mice and cultured with either control media or control media plus 125 μM DFO under normoxic conditions or in control media under hypoxic conditions (5% O2) for 2 hours before transplantation. All the islets from 1 donor mouse were transplanted into 1 recipient mouse which had been rendered diabetic (random glucose>22 mM) by streptozotocin treatment.
Transplant recipients were followed for 28 days, at which time nephrectomy was performed to confirm recurrence of diabetes.

diabetic SCID mice = assay: Minimal mass human islet transplantation into diabetic SCID mice; type: in vivo, mouse; conditions: human islets
Procedure: Human pancreatic islets were isolated from normal glucose tolerant donors as previously described (Gunton et al., 2005). Islets were transplanted under the left kidney capsule of SCID mice which had been rendered diabetic by injection of Alloxan at 95 mg/kg intravenously. Islets were transplanted in adequate mass (2000 IEQ per mouse), or minimal mass (600 IEQ per mouse). In each of the islet isolations, 2000 control-treated IEQ per mouse was adequate to cure diabetes. As expected, 600 control-treated IEQ per mouse was not adequate to control glucose at day 28 post-transplant in any mouse. […]

Min6 cells [3] = assay: Gene expression in Min6 cells by real-time PCR; type: cell-based, mouse
Procedure: Human pancreatic islets were purified from seven normoglycemic subjects using the modified Ricordi method (Ricordi et al., 1988) as previously described (Gunton et al., 2005). The subjects are described in (Gunton et al., 2005), and were matched for age and body-mass-index. Gene expression was measured by real-time-PCR and was performed in a two-step reaction using the Invitrogen RT-for-PCR kit. The second step was performed in a fluorescent temperature cycler (ABI-Prism 7700 Sequence Detection System, Applied Biosystems) with LightCycler-RNA Master SYBR-Green-I (Roche, Mannheim, Germany) and specific primers for each of the genes (sequences available on request). Every plate included a control gene (TATA-box binding protein/TBP) for every subject. Results were analysed by unpaired t-test.
In separate experiments, treated cells were lysed, and RNA isolated for real-time-PCR.
Following treatment with HIF-1α RNAi, the present inventors measured expression of genes in the maturity onset diabetes of the young (MODY) family, insulin-signalling and glucose-uptake and glycolytic genes by real-time PCR. […] In the insulin signaling pathway, HIF-1α knockdown decreased insulin-receptor substrate (IRS)-2 mRNA (FIG. 3E).
Min6 cells were treated with DFO at the doses indicated for 4 hours.

## CC(=O)N(O)CCCCCNC(=O)CCC(=O)N(O)CCCCCNC(=O)CCC(=O)N(O)CCCCCN [DFO, desferrioxamine]
Min6 cells [1]
  ATP generation: increased ATP generation; also recorded: increased ATP concentrations
Human islets
  insulin release (GSIS) of human islets: markedly increased; also recorded: markedly improved GSIS
Min6 cells [2]
  glucose stimulated insulin secretion (GSIS): substantial increase in GSIS
Diabetic recipient mouse
  average glucose after transplantation: 11.4 mM
Diabetic SCID mice; DFO 125 μM for 4 hours pre-transplantation, day 28
  success rate following transplant of 600 IEQ: 75%
Diabetic SCID mice; DFO 125 μmol/L prior to transplantation, n=8
  cure of diabetes following transplantation of 600 IEQ: 75%
Min6 cells [3]; DFO 4 hours
  expression of ARNT: did not alter expression of the house-keeping genes TATA-box binding protein (TBP) or transthyretin, or (B) increase expression of ARNT
  expression of housekeeping genes TATA-box binding protein (TBP) and transthyretin: did not increase expression; also recorded: did not alter expression
  expression of mRNAs for Akt2, GLUT1, GLUT2, HNF4α, IRS2 and phosphoglucomutase (PGM): dose-dependently increased expression; also recorded: significantly increased expression
Min6 cells [3]; DFO 4 hours (data not shown)
  expression of HNF1α, HNF1β and insulin receptor: did not alter
Min6 cells [3]; highest dose of DFO, 4 hours
  HIF-1α mRNA expression: small but significant increase; also recorded: showed increased expression
